Test results as given in US11406631B2, “Hydrazone derivatives for preventing or treating EBV-related cancers” (Universite de Bretagne Occidentale, priority 2018, dated 2022).

Tests used:
Mutu-1 cells = assay: Cell viability (MTT assay); assay type: cell-based; parameters: dose or concentration left out as unconfirmed; conditions: concentration range where they increase EBNA1 expression; preliminary results
Protocol: (§1) Stars indicate significant results (the higher the number of stars, the more significant).
Toxicity of various concentration of G4 ligands on Mutu-1 cells was assessed using the classical MTT assay. The results obtained with various concentrations of compounds 2a and 11a were compared to the result obtained with cells treated by DMSO (compound vehicle).

quadruplex RNA F-EBNA1-T = assay: FRET-melting assay; assay type: binding, Epstein-Barr virus; conditions: for ΔTm, ligand + 3 μM ds26 / ΔTm, ligand + 10 μM ds26 / ΔTm, ligand alone: F-EBNA1-T 0.2 μM, ligand 1.0 μM, K+10 buffer; for ΔTm, ligand + 3 μM ds26: competitor DNA ds26 3 μM (15 eq); for ΔTm, ligand + 10 μM ds26: competitor DNA ds26 10 μM (50 eq); for ΔTm, ligand alone: no competitor; for affinity for the G-quadruplex structure of EBNA1 (in words, FRET-melting data): conclusion from Table 2
Description: The FRET-melting assay is based on thermal denaturation of G4-ARN monitored by fluorescence due to the phenomenon of Förster Resonance Energy Transfer (FRET). This method uses quadruplex-forming RNA sequence dual-labeled with two different fluorophores: a donor (fluorescein, or FAM) and an acceptor (tetramethylrhodamine, or TAMRA). When RNA is folded into G-quadruplex (G4) structure, fluorescence of the donor fluorophore is weak due to strong energy transfer (FRET) to the neighboring acceptor fluorophore. Upon thermal denaturation, the quadruplex unfolds and the fluorophores are separated, leading to decrease of the FRET effect and increase of the fluorescence of the donor (see FIG. 2). By following the fluorescence of the donor as a function of temperature, a melting curve of the G-quadruplex RNA can be obtained, which allows determining the temperature of denaturation at which 50% of the quadruples is unfolded (T1, FIG. 3).
The FRET-melting assay allows assessing the affinity of small molecules (ligands) for the G4-RNA. The addition of a G4-ligand stabilizes the G-quadruplex structure and increases the denaturation temperature. The temperature of denaturation in the presence of ligands (T2) can be compared with that obtained in the absence of ligands (T1). The value of ΔTm (ΔTm=T2−T1) represents a measure of the affinity of the compounds of the invention (ligand). Generally, values of ΔTm>20° C. correspond to ligands of high affinity.
The dual-labeled oligoribonucleotide EBNA1 [5′-FAM-r(GGGGCAGGAGCAGGAGGA)-TAMRA-3′] (SEQ ID no 2) purified by reversed-phase HPLC was purchased from Eurogentec. The donor fluorophore was 6-carboxyfluorescein (FAM) and the acceptor fluorophore was 6-carboxytetramethylrhodamine (TAMRA).
Stock solutions of the ligands (2 mM in DMSO) were used for FRET-melting assay, unless otherwise stated, and were stored at −20° C. FRET-melting measurements are performed on 7900HT Fast Real-Time PCR System (Applied Biosystems) with Microamp Fast optical 96-well reaction plate (Applied Biosystems).
Preparation of Oligonucleotides For FRET-melting assay, oligoribonucleotide F-EBNA1-T was dissolved in K^+10 buffer (10 mM lithium cacodylate buffer, pH 7.3, supplemented with 10 mM KCl and 90 mM LiCl).
Prior to use, all oligonucleotides were pre-treated by heating at 95° C. for 5 min, then rapidly cooled to 4° C. to favor the intramolecular folding by kinetic trapping. Duplex-DNA ds26 (5′CAA-TCG-GAT-CGA-ATT-CGA-TCC-GAT-TG-3′) (SEQ ID no 3) was prepared by heating this self-complementary strand at 90° C. for 5 min in K^+10 buffer followed by a slow cooling over 6 h.
FRET-melting assay is performed in 96-well plates on real time PCR apparatus 7900HT Fast Real-Time PCR System using the heating ramp as follow: 5 min at 25° C., then increase of 0.5° C. every minute until 95° C. Each experimental condition was tested in duplicated in a volume of 25 μL for each sample. The 96-well plates (Applied Biosystems) were prepared by aliquoting the annealed RNA (24 μL of 0.21 μM solution in K^+10 buffer) into each well, followed by 1 μL of ligand solution (25 μM in K^+10 buffer). For competition experiments, duplex competitors were added to 200 nM quadruplex sequences at final concentrations of 3.0 μM (15 eq) and 10.0 μM (50 eq), with a total reaction volume of 25 μL, with the labeled oligoribonucleotide (0.2 μM) and the ligand (1.0 μM). Measurements were made with excitation at 492 nm and detection at 516 nm. The change in the melting temperature in the presence of 1.0 μM putative ligand, ΔTm (1.0 μM), was calculated from at least two experiments by subtraction of the blank from the averaged melting temperature of each compound (1.0 μM).
The results are shown in FIG. 4 and in Table 2 below (higher ΔTm values indicate higher affinity of the compounds to G4-RNA structure of EBNA1).

[1] = test system: EBNA1 expression in EBV-infected cells; assay: Western blot of endogenous EBNA1 in EBV-infected cell lines (B95.8, Mutu-1, Raji); assay type: cell-based; conditions: GAr-dependent; 2a in B95.8, Mutu-1 and Raji, 11a in Raji
Protocol: Therefore, compound 2a interferes with the GAr-based inhibition of protein expression. Interference with EBNA1 expression in EBV-infected cells was assessed in different cell lines. The principle of these experiments is the same than the one described in the paragraph just above except that the steady state level of endogenous EBNA1 is determined in these EBV-infected cell lines.
B95.8 cells are derived from cotton-top Tamarin Monkey peripheral blood lymphocyte EBV-positif. Mutu-1 cells are derived from an EBV-positive Burkitt's lymphoma biopsy specimen from a patient. Raji cells are EBV-positive type III latency Burkitt's lymphoma.
Compounds 2a and 11a increase in a GAr-dependent manner EBNA1 expression in EBV-infected cells.

[2] = test system: interaction between NCL and the G4s of EBNA1 mRNA; assay: Proximity ligation assay (PLA) in H1299 cells transfected with EBNA1 plasmids; assay type: cell-based; conditions: 5 μM
Description: as §1

[3] = test system: GAr-limited antigen presentation; assay: Antigen presentation assay (IL-2 ELISA); assay type: cell-based; conditions: 5 μM and 10 μM, compared to DMSO-treated cells
Protocol: Stars indicate significant results (the higher the number of stars, the more significant). […]ns[…] stands for not significant.
The aim of this assay was to determine if compounds 2a and 11a were able to interfere (suppress) with the GAr-dependent limitation of EBNA1-derived antigenic peptid presentation. H1299 cells were transfected with 235GAr-OVA or OVA plasmids and murine MHC class I Kb plasmids. T-cell proliferation is determined using ELISA assay for Mouse IL-2 (IL-2 is a potent lymphoid cell growth factor which exerts its biological activity primarily in T cell). There is therefore a correlation between the quantity of IL2 released and the T-cell proliferation.
Quantifications of IL2 release following treatment with compounds 2a or 11a, as compared to DMSO-treated cells are shown in the FIG. 7. […] These compounds thus increase T-cell proliferation.

SMILES | toxicity on Mutu-1 cells (Mutu-1 cells) | ΔTm, ligand + 3 μM ds26 (quadruplex RNA F-EBNA1-T) [°C] | ΔTm, ligand + 10 μM ds26 (quadruplex RNA F-EBNA1-T) [°C] | ΔTm, ligand alone (quadruplex RNA F-EBNA1-T) [°C] | affinity for the G-quadruplex structure of EBNA1 (in words, FRET-melting data) (quadruplex RNA F-EBNA1-T) | EBNA1 expression in EBV-infected cells [1] | number of PLA dots and their intensity [2] | number of nuclear PLA dots per cell [2] | release of IL-2, H1299 cells expressing 235GAr-OVA [3] | release of IL-2, OVA-expressing cells [3]
C[n+]1ccc(C=NNC(=O)c2ccc3ccc4ccc(C(=O)NN=Cc5cc[n+](C)c6ccccc56)nc4c3n2)c2ccccc21.[I-].[I-] [Compound 11a, N′^2,N′^9-Bis[(1-methylquinolinium-4-yl)methylene]-1,10-phenanthroline-2,9-dicarbohydrazide iodide] | not significantly toxic | 21.1 ± 0.6 | 19.3 ± 1.1 | 21.5 ± 0.2 | particularly high affinity | increase | significantly reduce | significantly reduced | significantly increased (two-fold change) | no effect
C[n+]1ccc(C=NNC(=O)c2cccc(C(=O)NN=Cc3cc[n+](C)c4ccccc34)n2)c2ccccc21.[I-].[I-] [Compound 2a, N′^2, N′^6-Bis[(1-methylquinolinium-4-yl)methylene]pyridine-2,6-dicarbohydrazide iodide] | not significantly toxic | 16.1 ± 0.4 | 14.2 ± 0.7 | 16.4 ± 0.4 | particularly high affinity | increase | significantly reduce | significantly reduced | significantly increased (two-fold change) | no effect
